Data: patent US20250326744A1, “PIPERAZINE DERIVATIVE OR SALT THEREOF, AND PHARMACEUTICAL COMPOSITION” (priority 2022, published 2025)
Structures can show the parent of a compound that is named as a salt.

Experiments:
[1] = system: mexB (EC) strain; test: Efflux ability inhibition effect on drug efflux pump MexB (Test Examples 1 and 3): proliferation (OD595) of mexB (EC) strain with EM or LVFX at 1/4 MIC, EC75; assay type: cell-based, Escherichia coli; conditions: Table 51, Test Example 1, 16 to 20 hours culture, OD595; for EC75, mexB (EC) strain, EM: combined with EM at 1/4 MIC; for EC75, mexB (EC) strain, LVFX: combined with LVFX at 1/4 MIC
Experimental: The efflux ability inhibition effect of the test compound on the drug efflux pump was evaluated using the bacterial proliferative ability in the presence of EM or LVFX as an index.
EM is a macrolide antibacterial agent and is a drug that is discharged outside the bacteria by MexB and MexY LVFX is a quinolone antibacterial agent and is a drug that is discharged outside the bacteria by MexB and MexY In a case where the test compound has an efflux ability inhibitory ability against the drug efflux pump, the proliferation of bacteria is suppressed by the combined use of EM or LVFX and the test compound, as compared with the case where EM or LVFX is used alone.
A mutant strain (hereinafter, referred to as an “mexB (EC) strain”) obtained by transferring the genes of the main multidrug efflux system MexAB-OprM of Pseudomonas aeruginosa described in Nature, 2013, Vol. 500, pp. 102 to 106 as a plasmid into Escherichia coli strains in which the acrB and tolC genes of the multidrug efflux system AcrAB-TolC were deleted as described in Journal of Infection and Chemotherapy 2008, Vol. 14, pp. 23 to 29, and a gene transfer strain (hereinafter, referred to as an “mexY (EC) strain”) of another main multidrug efflux system MexXY-OprM of Pseudomonas aeruginosa were used for the evaluation of test compounds.
In the mexB (EC) strain, an expression level of MexB of the drug efflux pump is accelerated, and in the mexY (EC) strain, an expression level of MexY of the drug efflux pump is accelerated.
For culturing each Escherichia coli strain, a 96-well plate (amount of culture medium per well: 100 μL) was used and Luria-Bertani broth (LB) culture medium was used. The inoculation amount of the bacteria was set to 10^4 to 5 CFU/well.
The mexB (EC) strain and the mexY (EC) strain were cultured for 16 to 20 hours in a culture medium to which EM or LVFX and test compounds at various concentrations (0 to 800 μM) were added, and the proliferation of the bacterial strains was evaluated by optical turbidity at 595 nm (OD595). The concentration of the antibacterial agents (EM and LVFX) in the culture medium were each set to ¼ of the minimum inhibitory concentration (MIC) (hereinafter, referred to as ¼ MIC) of the single antibacterial agent.
The proliferation of bacteria in a case where the antibacterial agent was added at the concentration of ¼ MIC in a case where the test compound was not added was measured, and compared with the proliferation of bacteria in a case where the test compound was contained, and the lowest concentration of the test compound at which the proliferation was inhibited by 75% or more was defined as the drug efflux pump inhibitory ability of the test compound as 75% inhibitory effect concentration (EC75).
The drug efflux pump inhibitory ability of each test compound in a case of being used in combination with the antibacterial agent against the mexB (EC) strain and the mexY (EC) strain was evaluated as follows according to the value of EC75. • S: EC75≤[…] • A: 12.5 μM<EC75≤25 μM • B: 25 μM<EC75≤100 μM • C: […]
In the same manner as in Test Example 1, the efflux ability inhibition effect of the test compound on the drug efflux pump was evaluated using the bacterial proliferation ability in the presence of EM or LVFX as an index.

[2] = system: mexY (EC) strain; test: Efflux ability inhibition effect on drug efflux pump MexY (Test Examples 1 and 3): proliferation (OD595) of mexY (EC) strain with EM or LVFX at 1/4 MIC, EC75; assay type: cell-based, Escherichia coli; conditions: Table 51, Test Example 1, 16 to 20 hours culture, OD595; for EC75, mexY (EC) strain, EM: combined with EM at 1/4 MIC; for EC75, mexY (EC) strain, LVFX: combined with LVFX at 1/4 MIC
Procedure, shortened: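 E. coli ΔacrB/ΔtolC strains carrying P. aeruginosa MexAB-OprM or MexXY-OprM were grown in LB for 16 to 20 hours with EM or LVFX at ¼ MIC plus compound (0 to 800 μM). Growth was read as OD595. EC75 is the lowest compound concentration giving ≥75% growth inhibition versus antibiotic alone.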

## N[C@@H](C(=O)N1CCN(Cc2cscn2)CC1)C1CCN(CCc2cc(Cl)ccc2-c2ccccc2)CC1 [Example 13, Hydrobromide of (R)-2-amino-2-(1-(2-(4-chloro-[1,1′-biphenyl]-2-yl)ethyl)piperidin-4-yl)-1-(4-(thiazol-4-ylmethyl)piperazin-1-yl)ethan-1-one]
[1]
  EC75, mexB (EC) strain, EM: B (25 μM<EC75≤100 μM)
  EC75, mexB (EC) strain, LVFX: B (25 μM<EC75≤100 μM)
[2]
  EC75, mexY (EC) strain, EM: B (25 μM<EC75≤100 μM)
  EC75, mexY (EC) strain, LVFX: B (25 μM<EC75≤100 μM)

## CCOc1cccc(/C=C/C#N)c1CN1CCN(C(=O)[C@H](N)C2CCN(CCc3ccccc3)CC2)CC1 [Example 34]
[1]
  EC75, mexB (EC) strain, EM: B (25 μM<EC75≤100 μM)
  EC75, mexB (EC) strain, LVFX: B (25 μM<EC75≤100 μM)
[2]
  EC75, mexY (EC) strain, EM: A (12.5 μM<EC75≤25 μM)
  EC75, mexY (EC) strain, LVFX: A (12.5 μM<EC75≤25 μM)

## CCOc1cccc(F)c1CN1CCN(C(=O)[C@H](N)C2CCN(CC(F)(F)c3ccccc3)CC2)CC1 [Example 54, Hydrobromide of (R)-2-amino-2-(1-(2,2-difluoro-2-phenylethyl)piperidin-4-yl)-1-(4-(2-ethoxy-6-fluorobenzyl)piperazin-1-yl) ethan-1-one]
[1]
  EC75, mexB (EC) strain, EM: B (25 μM<EC75≤100 μM)
  EC75, mexB (EC) strain, LVFX: B (25 μM<EC75≤100 μM)
[2]
  EC75, mexY (EC) strain, EM: B (25 μM<EC75≤100 μM)
  EC75, mexY (EC) strain, LVFX: B (25 μM<EC75≤100 μM)

## COc1ccccc1CN1CCN(C(=O)[C@@H](N)C2CCN(CCc3ccccc3)CC2)CC1 [Example 112, Hydrochloride of (S)-2-amino-1-(4-(2-methoxybenzyl)piperazin-1-yl)-2-(1-phenethylpiperidin-4-yl)ethan-1-one]
[1]
  EC75, mexB (EC) strain, EM: B (25 μM<EC75≤100 μM)
  EC75, mexB (EC) strain, LVFX: B (25 μM<EC75≤100 μM)
[2]
  EC75, mexY (EC) strain, EM: A (12.5 μM<EC75≤25 μM)
  EC75, mexY (EC) strain, LVFX: A (12.5 μM<EC75≤25 μM)

## COCCOc1cccc(F)c1CN1CCN(C(=O)[C@H](N)C2CCN(CCc3ccccc3)CC2)CC1 [Example 116, Hydrochloride of (R)-2-amino-1-(4-(2-fluoro-6-(2-methoxyethoxy)benzyl)piperazin-1-yl)-2-(1-phenethylpiperidin-4-yl)ethan-1-one]
[1]
  EC75, mexB (EC) strain, EM: A (12.5 μM<EC75≤25 μM)
  EC75, mexB (EC) strain, LVFX: A (12.5 μM<EC75≤25 μM)
[2]
  EC75, mexY (EC) strain, EM: B (25 μM<EC75≤100 μM)
  EC75, mexY (EC) strain, LVFX: B (25 μM<EC75≤100 μM)

## CN[C@@H](C(=O)N1CCN(Cc2ccccc2OC)CC1)C1CCN(CCc2ccccc2)CC1 [Example 131, hydrochloride of (R)-1-(4-(2-methoxybenzyl)piperazin-1-yl)-2-(methylamino)-2-(1-phenethylpiperidin-4-yl)ethan-1-one]
[1]
  EC75, mexB (EC) strain, EM: B (25 μM<EC75≤100 μM)
  EC75, mexB (EC) strain, LVFX: B (25 μM<EC75≤100 μM)
[2]
  EC75, mexY (EC) strain, EM: B (25 μM<EC75≤100 μM)
  EC75, mexY (EC) strain, LVFX: B (25 μM<EC75≤100 μM)

## COc1ccccc1CN1CCN(C(=O)[C@H](N)C2CCN(CCc3ccsc3)CC2)CC1 [Example 133, hydrochloride of (R)-2-amino-1-(4-(2-methoxybenzyl)piperazin-1-yl)-2-(1-(2-(thiophen-3-yl)ethyl)piperidin-4-yl)ethan-1-one]
[1]
  EC75, mexB (EC) strain, LVFX: A (12.5 μM<EC75≤25 μM)
[2]
  EC75, mexY (EC) strain, EM: B (25 μM<EC75≤100 μM)
  EC75, mexY (EC) strain, LVFX: B (25 μM<EC75≤100 μM)

## COc1ccccc1CN1CCN(C(=O)[C@H](N)C2CCN(CC(CN)c3ccccc3)CC2)CC1 (stereo partly drawn) [Example 136, hydrochloride of (2R)-2-amino-2-(1-(3-amino-2-phenylpropyl)piperidin-4-yl)-1-(4-(2-methoxybenzyl)piperazin-1-yl)ethan-1-one]
[1]
  EC75, mexB (EC) strain, EM: B (25 μM<EC75≤100 μM)
[2]
  EC75, mexY (EC) strain, EM: B (25 μM<EC75≤100 μM)
  EC75, mexY (EC) strain, LVFX: B (25 μM<EC75≤100 μM)

## O=C(O)c1ccccc1CN1CCN(C(=O)CN2CCN(CCc3ccccc3)CC2)CC1 [Example 256, sodium salt of 2-((4-(2-(4-phenethylpiperazin-1-yl)acetyl)piperazin-1-yl)methyl)benzenecarboxylic acid]
[1]
  EC75, mexB (EC) strain, EM: B (25 μM<EC75≤100 μM)
[2]
  EC75, mexY (EC) strain, EM: B (25 μM<EC75≤100 μM)

## COc1ccccc1CN1CCN(C(=O)C(=NN)C2CCN(CCc3ccccc3)CC2)CC1 [Example 301, hydrochloride of 2-hydrazinyliden-1-(4-(2-methoxybenzyl)piperazin-1-yl)-2-(1-phenethylpiperidin-4-yl)ethan-1-one]
[1]
  EC75, mexB (EC) strain, EM: B (25 μM<EC75≤100 μM)
  EC75, mexB (EC) strain, LVFX: B (25 μM<EC75≤100 μM)
[2]
  EC75, mexY (EC) strain, EM: B (25 μM<EC75≤100 μM)
  EC75, mexY (EC) strain, LVFX: B (25 μM<EC75≤100 μM)

## COc1ccccc1CN1CCN(C(=O)C(=NO)C2CCN(CCc3ccccc3)CC2)CC1 [Example 302, hydrochloride of 2-(hydroxyimino)-1-(4-(2-methoxybenzyl)piperazin-1-yl)-2-(1-phenethylpiperidine-4-yl)ethan-1-one]
[1]
  EC75, mexB (EC) strain, EM: B (25 μM<EC75≤100 μM)
[2]
  EC75, mexY (EC) strain, EM: B (25 μM<EC75≤100 μM)
  EC75, mexY (EC) strain, LVFX: B (25 μM<EC75≤100 μM)

## COc1ccccc1CN1CCN(C(=O)CN2CCC(CN)(CCc3ccccc3)CC2)CC1 [Example 413, hydrochloride of 2-(4-(aminomethyl)-4-phenethylpiperidin-1-yl)-1-(4-(2-methoxybenzyl)piperazin-1-yl)ethan-1-one]
[1]
  EC75, mexB (EC) strain, EM: A (12.5 μM<EC75≤25 μM)
  EC75, mexB (EC) strain, LVFX: A (12.5 μM<EC75≤25 μM)
[2]
  EC75, mexY (EC) strain, EM: A (12.5 μM<EC75≤25 μM)

## COc1ccccc1CN1CCN(C(=O)CN2CCC(N)(CCc3ccccc3)CC2)CC1 [Example 414, hydrochloride of 2-(4-amino-4-phenethylpiperidin-1-yl)-1-(4-(2-methoxybenzyl)piperazin-1-yl)ethan-1-one]
[1]
  EC75, mexB (EC) strain, LVFX: A (12.5 μM<EC75≤25 μM)
[2]
  EC75, mexY (EC) strain, EM: B (25 μM<EC75≤100 μM)
  EC75, mexY (EC) strain, LVFX: B (25 μM<EC75≤100 μM)

## COc1ccccc1CN1CCN(C(=O)CN2CCC(NC(=O)c3ccc(O)c(O)c3Cl)CC2)CC1 [Example 418, hydrochloride of 2-chloro-3,4-dihydroxy-N-(1-(2-(4-(2-methoxybenzyl)piperazin-1-yl)-2-oxoethyl)piperidin-4-yl)benzamide]
[1]
  EC75, mexB (EC) strain, EM: B (25 μM<EC75≤100 μM)
  EC75, mexB (EC) strain, LVFX: B (25 μM<EC75≤100 μM)
[2]
  EC75, mexY (EC) strain, LVFX: A (12.5 μM<EC75≤25 μM)

## COc1ccccc1CN1CCN(C(=O)CN2CCC(NCc3ccccc3)CC2)CC1 [Example 419, hydrochloride of 2-(4-(benzylamino)piperidin-1-yl)-1-(4-(2-methoxybenzyl)piperazin-1-yl)ethan-1-one]
[1]
  EC75, mexB (EC) strain, LVFX: A (12.5 μM<EC75≤25 μM)
[2]
  EC75, mexY (EC) strain, EM: B (25 μM<EC75≤100 μM)
  EC75, mexY (EC) strain, LVFX: B (25 μM<EC75≤100 μM)
